Target: T1, Chk1 (checkpoint kinase-1) (Homo sapiens, UniProt O14757)
T1 construct: gene CHEK1; recombinant Chk1
T1 sequence (O14757 1-476): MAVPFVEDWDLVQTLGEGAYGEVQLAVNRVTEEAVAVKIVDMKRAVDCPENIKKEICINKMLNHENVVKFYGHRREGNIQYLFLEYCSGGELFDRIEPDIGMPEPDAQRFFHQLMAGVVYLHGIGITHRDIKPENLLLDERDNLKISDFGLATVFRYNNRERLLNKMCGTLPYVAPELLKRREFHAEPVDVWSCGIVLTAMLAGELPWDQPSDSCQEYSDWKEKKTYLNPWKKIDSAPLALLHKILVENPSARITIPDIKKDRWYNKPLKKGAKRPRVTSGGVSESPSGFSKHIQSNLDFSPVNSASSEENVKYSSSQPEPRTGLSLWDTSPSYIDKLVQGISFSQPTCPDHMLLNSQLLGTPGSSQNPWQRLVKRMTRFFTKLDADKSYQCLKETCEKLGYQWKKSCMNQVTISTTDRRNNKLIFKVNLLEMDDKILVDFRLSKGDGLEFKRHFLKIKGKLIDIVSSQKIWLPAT
Assay: in vitro inhibition of recombinant Chk1 (assay details not given)
Assay type: biochemical

- IC50: 29 nM
Substance: SD1825

From publication PMC2131784, “Inhibition of Chk1 Kills Tetraploid Tumor Cells through a p53-Dependent Pathway” (PLoS ONE, 2007)
